Each block holds one molecule with its values, some of them ahead of it.
How the values were obtained:
[1] = Pharmacokinetics of Octreotide in albumin crystal sugar truffle shell vs IV, plasma Octreotide by ELISA; type: in vivo, Wistar Rats; conditions: 0.1 mg
From the text: Rats in the oral treatment group was fasted overnight. […] The time of dosage of each animal was noted. […] Biosystems protocol.

[2] = Pharmacokinetics of PTH (1-34) in albumin crystal capsule (Vitamin E) vs IV, plasma PTH (1-34) by ELISA; type: in vivo, Minipigs (Yorkshire); conditions: 0.04 mg
From the text: The PTH (1-34) was processed to prepare albumin microparticles containing PTH according to the procedure mentioned under Example 4. The microparticle of albumin crystals containing PTH was then lyophilized after washing with cold isopropanol. […] The capsule was then closed.
(§1) Pigs in the oral treatment group was either fasted overnight or fed prior to the test sample administration. […] The time of dosage of each animal was noted. […] An antibody, anti-PTH (1-34) was pre-coated onto a 96-well plate. […] The intensity of the yellow color is proportional to the PTH (1-34) amount bound on the plate.

[3] = Pharmacokinetics of PTH (1-34) in albumin crystal sugar truffle shell vs IV, plasma PTH (1-34) by ELISA; type: in vivo, Minipigs (Yorkshire); conditions: 0.04 mg
From the text: The PTH (1-34) was processed to prepare albumin microparticles containing PTH according to the procedure mentioned under Example 4. The microparticle of albumin crystals containing PTH was then lyophilized after washing with cold isopropanol.
as §1

[4] = female, Yorkshire, minipig, plasma, iv
[5] = female, Yorkshire, minipig, plasma, iv, IV, read-out: AUC 0-inf_pred
[6] = female, Yorkshire, minipig, plasma, iv, IV, read-out: AUC 0-t
[7] = female, Yorkshire, minipig, plasma, iv, IV, read-out: AUC t-inf_obs
[8] = female, Yorkshire, minipig, plasma, iv, IV, read-out: AUC t-inf_pred
[9] = female, Yorkshire, minipig, plasma, iv, IV, read-out: MRT 0-inf_obs
[10] = female, Yorkshire, minipig, plasma, iv, IV, read-out: MRT 0-inf_pred
[11] = female, Yorkshire, minipig, plasma, iv, read-out: MRT 0-t
[12] = female, Yorkshire, minipig, plasma, iv, read-out: t½ (converted)

SMILES: C[C@@H](O)[C@@H]1NC(=O)[C@H](CCCCN)NC(=O)[C@@H](Cc2c[nH]c3ccccc23)NC(=O)[C@H](Cc2ccccc2)NC(=O)[C@@H](NC(=O)[C@H](N)Cc2ccccc2)CSSC[C@@H](C(=O)N[C@H](CO)[C@@H](C)O)NC1=O (relative stereo) [Octreotide, L-cysteinamide, D-phenylalanyl-L-cysteinyl-L-phenylalanyl-D-tryptophyl-L-lysyl-L-threonyl-N-[2-hydroxy-1-(hydroxy-methyl)propyl]-, cyclic (2→7)-disulfide; [R-(R*,R*)]]
Cl_pred ([1]; IV): 6.036E−06 (mg)/(ng/ml)/h | Vss_obs ([1]; IV): 0.0001111 (mg)/(ng/ml) | Vss_pred ([1]; IV): 0.0001107 (mg)/(ng/ml) | Vz_obs ([1]; IV): 0.0001106 (mg)/(ng/ml) | Vz_pred ([1]; IV): 0.0001118 (mg)/(ng/ml) | C0 ([1]; male, Wistar, rat, in vivo, iv): 3830 ng/mL | Cmax ([1]; male, Wistar, rat, in vivo, iv): 5390 ng/mL | Tmax ([1]; male, Wistar, rat, in vivo, iv): 2 h | AUC(0-inf) ([1]; male, Wistar, rat, in vivo, iv, IV, read-out: AUC 0-inf_obs): 105000 ng·h/mL | AUC(0-inf) ([1]; male, Wistar, rat, in vivo, iv, IV, read-out: AUC 0-inf_pred): 104000 ng·h/mL | AUC(0-t) ([1]; male, Wistar, rat, in vivo, iv, IV, read-out: AUC 0-t): 74200 ng·h/mL | AUC(0-t) ([1]; male, Wistar, rat, in vivo, iv, IV, read-out: AUC t-inf_obs): 30500 ng·h/mL | AUC(0-t) ([1]; male, Wistar, rat, in vivo, iv, IV, read-out: AUC t-inf_pred): 29400 ng·h/mL | MRT inf ([1]; male, Wistar, rat, in vivo, iv, IV, read-out: MRT 0-inf_obs): 18.6 h | MRT inf ([1]; male, Wistar, rat, in vivo, iv, IV, read-out: MRT 0-inf_pred): 18.3 h | MRT last ([1]; male, Wistar, rat, in vivo, iv, read-out: MRT 0-t): 8.78 h | half-life ([1]; male, Wistar, rat, in vivo, iv, read-out: t½ (converted)): 12.8 h | level at 0 h ([1]; male, Wistar, rat, in vivo, 0 h, IV): 3830 ± 1290 ng/mL | level at 0.25 h ([1]; male, Wistar, rat, in vivo, 0.25 h, IV): 4390 ± 559 ng/mL | level at 0.5 h ([1]; male, Wistar, rat, in vivo, 0.5 h, IV): 3170 ± 924 ng/mL | level at 1 h ([1]; male, Wistar, rat, in vivo, 1 h, IV): 4130 ± 1170 ng/mL | level at 2 h ([1]; male, Wistar, rat, in vivo, 2 h, IV): 5390 ± 356 ng/mL | level at 4 h ([1]; male, Wistar, rat, in vivo, 4 h, IV): 5150 ± 704 ng/mL | level at 8 h ([1]; male, Wistar, rat, in vivo, 8 h, IV): 3160 ± 1390 ng/mL

AUMC 0-inf_obs ([2]; IV): 4903.835 pg/ml * h^2 | AUMC 0-inf_pred ([2]; IV): 4888.052 pg/ml * h^2 | AUMC 0-t/0-inf_obs ([2]; IV): 0.779 | AUMC 0-t/0-inf_pred ([2]; IV): 0.782 | AUMC t-inf_pred ([2]; IV): 1065.980 pg/ml * h^2 | AUMC_0-t ([2]; IV): 3822.072 pg/ml * h^2 | AUMC_t-inf obs ([2]; IV): 1081.763 pg/ml * h^2 | Cl_obs ([2]; IV): 0.000 (mg)/(pg/ml)/h | Cl_pred ([2]; IV): 0.000 (mg)/(pg/ml)/h | Clast_obs ([2]; IV): 0.01543 ng/mL | Clast_pred ([2]; IV): 0.015205 ng/mL | Lambda_z ([2]; IV): 0.233 h⁻¹ | Tlast ([2]; IV): 12.000 h | C0 [2, 4]: 1.43 ng/mL | Cmax [2, 4]: 2.9 ng/mL | Tmax [2, 4]: 9.6 min | AUC(0-inf) ([2]; female, Yorkshire, minipig, plasma, iv, IV, read-out: AUC 0-inf obs): 2.72 ng·h/mL | AUC(0-inf) [2, 5]: 2.72 ng·h/mL | AUC(0-t) [2, 6]: 2.65 ng·h/mL | AUC(0-t) [2, 7]: 0.0664 ng·h/mL | AUC(0-t) [2, 8]: 0.0654 ng·h/mL | MRT inf [2, 9]: 1.8 h | MRT inf [2, 10]: 1.8 h | MRT last [2, 11]: 1.44 h | half-life [2, 12]: 2.98 h | level at 0 h ([2]; female, Yorkshire, minipig, plasma, 0 h, IV, read-out: Mean PTH (1-34) levels): 1.43 ± 0.105 ng/mL | level at 0.08 h ([2]; female, Yorkshire, minipig, plasma, 0.08 h, IV, read-out: Mean PTH (1-34) levels): 2.82 ± 0.197 ng/mL | level at 0.16 h ([2]; female, Yorkshire, minipig, plasma, 0.16 h, IV, read-out: Mean PTH (1-34) levels): 2.9 ± 0.307 ng/mL | level at 0.5 h ([2]; female, Yorkshire, minipig, plasma, 0.5 h, IV, read-out: Mean PTH (1-34) levels): 1.62 ± 0.23 ng/mL | level at 1 h ([2]; female, Yorkshire, minipig, plasma, 1 h, IV, read-out: Mean PTH (1-34) levels): 0.421 ± 0.126 ng/mL | level at 2 h ([2]; female, Yorkshire, minipig, plasma, 2 h, IV, read-out: Mean PTH (1-34) levels): 0.165 ± 0.0395 ng/mL | level at 4 h ([2]; female, Yorkshire, minipig, plasma, 4 h, IV, read-out: Mean PTH (1-34) levels): 0.0908 ± 0.00755 ng/mL | level at 12 h ([2]; female, Yorkshire, minipig, plasma, 12 h, IV, read-out: Mean PTH (1-34) levels): 0.0154 ± 0.00157 ng/mL | Mean PTH (1-34) levels ([3]; 0 h, IV): 1429.01 ± 104.61 pg/mL | Mean PTH (1-34) levels ([3]; 0.08 h, IV): 2822.98 ± 196.91 pg/mL | Mean PTH (1-34) levels ([3]; 0.16 h, IV): 2898.29 ± 307.43 pg/mL | Mean PTH (1-34) levels ([3]; 0.5 h, IV): 1619.38 ± 229.76 pg/mL | Mean PTH (1-34) levels ([3]; 1 h, IV): 421.23 ± 126.34 pg/mL | Mean PTH (1-34) levels ([3]; 2 h, IV): 164.93 ± 39.5 pg/mL | Mean PTH (1-34) levels ([3]; 4 h, IV): 90.76 ± 7.55 pg/mL | Mean PTH (1-34) levels ([3]; 12 h, IV): 15.43 ± 1.57 pg/mL | AUMC 0-inf_obs ([3]; IV): 4903.835 pg/ml * h^2 | AUMC 0-inf_pred ([3]; IV): 4888.052 pg/ml * h^2 | AUMC 0-t ([3]; IV): 3822.072 pg/ml * h^2 | AUMC 0-t/0-inf_obs ([3]; IV): 0.779 | AUMC 0-t/0-inf_pred ([3]; IV): 0.782 | AUMC t-inf_obs ([3]; IV): 1081.763 pg/ml * h^2 | AUMC t-inf_pred ([3]; IV): 1065.980 pg/ml * h^2 | Cl_obs ([3]; IV): 0.000 (mg)/(pg/ml)/h | Cl_pred ([3]; IV): 0.000 (mg)/(pg/ml)/h | Clast_pred ([3]; IV): 0.015205 ng/mL | Lambda_z ([3]; IV): 0.233 h⁻¹ | Tlast ([3]; IV): 12.000 h | C0 [3, 4]: 1.43 ng/mL | Cmax [3, 4]: 2.9 ng/mL | Tmax [3, 4]: 9.6 min | AUC(0-inf) ([3]; female, Yorkshire, minipig, plasma, iv, IV, read-out: AUC 0-inf_obs): 2.72 ng·h/mL | AUC(0-inf) [3, 5]: 2.72 ng·h/mL | AUC(0-t) [3, 6]: 2.65 ng·h/mL | AUC(0-t) [3, 7]: 0.0664 ng·h/mL | AUC(0-t) [3, 8]: 0.0654 ng·h/mL | MRT inf [3, 9]: 1.8 h | MRT inf [3, 10]: 1.8 h | level at 12 h ([3]; female, Yorkshire, minipig, plasma, iv, read-out: Clast_obs): 0.0154 ng/mL | MRT last [3, 11]: 1.44 h | half-life [3, 12]: 2.98 h
SMILES: CC[C@H](C)[C@H](NC(=O)[C@H](CCC(=O)O)NC(=O)[C@H](CO)NC(=O)[C@@H](NC(=O)[C@@H](N)CO)C(C)C)C(=O)N[C@@H](CCC(N)=O)C(=O)N[C@@H](CC(C)C)C(=O)N[C@@H](CCSC)C(=O)N[C@@H](Cc1cnc[nH]1)C(=O)N[C@@H](CC(N)=O)C(=O)N[C@@H](CC(C)C)C(=O)NCC(=O)N[C@@H](CCCCN)C(=O)N[C@@H](Cc1cnc[nH]1)C(=O)N[C@@H](CC(C)C)C(=O)N[C@@H](CC(N)=O)C(=O)N[C@@H](CO)C(=O)N[C@@H](CCSC)C(=O)N[C@@H](CCC(=O)O)C(=O)N[C@@H](CCCN=C(N)N)C(=O)N[C@H](C(=O)N[C@@H](CCC(=O)O)C(=O)N[C@@H](Cc1c[nH]c2ccccc12)C(=O)N[C@@H](CC(C)C)C(=O)N[C@@H](CCCN=C(N)N)C(=O)N[C@@H](CCCCN)C(=O)N[C@@H](CCCCN)C(=O)N[C@@H](CC(C)C)C(=O)N[C@@H](CCC(N)=O)C(=O)N[C@@H](CC(=O)O)C(=O)N[C@H](C(=O)N[C@@H](Cc1cnc[nH]1)C(=O)N[C@@H](CC(N)=O)C(=O)N[C@@H](Cc1ccccc1)C(=O)O)C(C)C)C(C)C [PTH (1-34)]

Reference: patent US12533321B2, “Polypeptide formulations for oral delivery” (Bhami's Research Laboratory, Pvt. Ltd., priority 2022, dated 2026)
